This is an account of results in patent publication US10017506B2, “ATX modulating agents” (BIOGEN MA INC., priority 2012, dated 2018).

pIC50: −log10 of the molar value. Bounds are passed on as bounds.

For the first assay, the target named is T1, Human ATX protein (Homo sapiens, UniProt Q13822).
T1 construct: made in house
Nature of the assay: ATX biochemical FRET assay with FS-3 substrate. The following applies: FRET substrate FS-3 2 μM, ATX 1.0 μg/mL, 30 minutes pre-incubation, 2 hours at room temperature; read-out: IC50. The source says:
ATX (Autotaxin) is a 125 KDa glycoprotein with lysophospholipase D (LPLD) activity that generates the bioactive lipid lysophosphatidic acid (LPA) from lysophosphatidylcholine (LPC). The ATX biochemical assay utilizes a FRET (fluorescence resonance energy transfer) technology platform. The fluorescence signal of FRET substrate FS-3 is quenched due to intra-molecular FRET of a fluorophore to a non-fluorescing quencher (Ferguson, C. G., et al., Org Lett. 2006 May 11; 8(10): 2023-2026, which is incorporated by reference in its entirety). ATX catalyzes the hydrolysis of the substrate which separates the dabsyl quencher from the fluorescein reporter, which becomes fluorescent. The reaction is monitored by a SpectraMax M5 (Molecular Devices, Sunnyvale, Calif.) with at excitation wavelength 485 nm and emission wavelength […].
Fatty acid free-BSA (Sigma A8806): 10 mg/mL in H2O, stored at 4° C.
2×ATX assay buffer: 100 mM Tris, 280 mM NaCl, 10 mM KCl, 2 mM CaCl2, 2 mM MgCl2, pH 7.4.
Human ATX protein: expressed and purified in house. Stored at −80° C.
Substrate FS-3 (Echelon, L-2000): 100 μg in 77.74 μL H2O (1 mM stock), stored at −20° C.
384-well flat bottom plates—Corning #3575.
Compound dilution—All compounds were provided at 10 mM in 100% DMSO. In the first well, 2 μL of 10 mM compound was added to 78 μL of DMSO (1:40 dilution). In subsequent wells 3-fold dilution (total 10 dilutions) were performed.
1×ATX assay buffer was made up with a final concentration of 1 mg/mL fatty acid free-BSA using 2×ATX assay buffer, 10 mg/ml fatty acid free-BSA and ddH2O.
ATX protein was diluted with 1×ATX assay buffer to a concentration of 1.32 μg/mL (1.32×). 38 μL was added per well to the assay plate. The final concentration of ATX in the reaction as 1.0 μg/mL.
2 μL per well of compounds was transferred to provide the desired concentration. The plate was centrifuged, then incubated at room temperature for 30 minutes on the shaker.
Then, 10 μL was added per well to the assay plate. […] The plate was centrifuged. The plate was kept shaking at room temperature for 2 hours. Because FS-3 substrate is light sensitive, plates were kept covered and protected from light.
Fluorescence was measured using SpectraMax M5 (excitation at 485 nm/emission at 538 nm, top read).
`CC[C@H]1CC[C@@H](Oc2ccc3ccc([C@@H](C)N[C@@H]4C[C@@H](C(=O)O)C4(C)C)cc3c2C(F)(F)F)CC1` [Example 117c, (1R,3R)-3-(((R)-1-(7-((cis-4-ethylcyclohexyl)oxy)-8-(trifluoromethyl)naphthalen-2-yl)ethyl)amino)-2,2-dimethylcyclobutanecarboxylic acid]: the pIC50 is at least 7.00.

Regarding `CC[C@H]1CC[C@@H](Oc2ccc3ccc(C(C)NC4CCC(C(=O)O)C4)cc3c2C(F)(F)F)CC1` (stereo partly drawn) [Example 131, 3-((1-(7-((cis-4-ethylcyclohexyl)oxy)-8-(trifluoromethyl)naphthalen-2-yl)ethyl)amino)cyclopentanecarboxylic acid], the pIC50 was at least 7.00. Take `CCC(N[C@H]1C[C@@H](C(=O)O)C1(C)C)c1ccc2ccc(O[C@H]3CC[C@@H](C(F)(F)F)CC3)c(Cl)c2c1` (stereo partly drawn) [Example 32, (1R,3S)-3-((1-(8-chloro-7-((cis-4-(trifluoromethyl)cyclohexyl)oxy)naphthalen-2-yl)propyl)amino)-2,2-dimethylcyclobutanecarboxylic acid]: the pIC50 was at least 6.30. As for `CC[C@H]1CC[C@@H](Oc2ccc3ccc([C@H](C)N[C@H]4C[C@H](C(=O)O)C4(C)C)cc3c2C(F)(F)F)CC1` [Example 118a, (1S,3S)-3-(((S)-1-(7-((cis-4-ethylcyclohexyl)oxy)-8-(trifluoromethyl)naphthalen-2-yl)ethyl)amino)-2,2-dimethylcyclobutanecarboxylic acid], the pIC50 is at least 6.30.

`CCC(N[C@H]1CC[C@@H](C(=O)O)CC1)c1ccc2ccc(O[C@H]3CC[C@@H](C)CC3)c(C(F)(F)F)c2c1` (stereo partly drawn) [Example 146, cis-4-((1-(7-((cis-4-methylcyclohexyl)oxy)-8-(trifluoromethyl)naphthalen-2-yl)propyl)amino)cyclohexanecarboxylic acid]: the pIC50 is at least 6.60. Consider `C[C@H](N[C@@H]1C[C@H](C(=O)O)C1(C)C)c1ccc2ccc(O[C@H]3CC[C@@H](C(F)(F)F)CC3)c(C(F)(F)F)c2c1` [Example 121b, (1S,3R)-2,2-dimethyl-3-(((S)-1-(8-(trifluoromethyl)-7-((cis-4-(trifluoromethyl)cyclohexyl)oxy)naphthalen-2-yl)ethyl)amino)cyclobutanecarboxylic acid], for which the pIC50 was at least 7.00. Consider `CC[C@H]1CC[C@@H](Oc2ccc3ccc(C(C)N4CCC[C@H](CC(=O)O)C4)cc3c2C(F)(F)F)CC1` (stereo partly drawn) [Example 58, 2-((3R)-1-(1-(7-((cis-4-ethylcyclohexyl)oxy)-8-(trifluoromethyl)naphthalen-2-yl)ethyl)piperidin-3-yl)acetic acid], for which the negative-log IC50 (pIC50) was at least 6.60. `CC[C@H]1CC[C@@H](Oc2ccc3ccc([C@H](C)N[C@H]4C[C@@H](C(=O)O)C4(C)C)cc3c2C(F)(F)F)CC1` [Example 118b, (1R,3S)-3-(((S)-1-(7-((cis-4-ethylcyclohexyl)oxy)-8-(trifluoromethyl)naphthalen-2-yl)ethyl)amino)-2,2-dimethylcyclobutanecarboxylic acid]: the pIC50 was at least 7.00. On to `CC(c1ccc2ccc(O[C@H]3CC[C@@H](C)CC3)c(C(F)(F)F)c2c1)N1CCC[C@H](CC(=O)O)C1` (stereo partly drawn) [Example 81, 2-((3R)-1-(1-(7-((cis-4-methylcyclohexyl)oxy)-8-(trifluoromethyl)naphthalen-2-yl)ethyl)piperidin-3-yl)acetic acid], for which the pIC50 is at least 6.60. Turning to `O=C(O)C1CCN(Cc2ccc3ccc(O[C@H]4CC[C@@H](C(F)(F)F)CC4)c(C(F)(F)F)c3c2)CC1` [Example 43, 1-((8-(trifluoromethyl)-7-((cis-4-(trifluoromethyl)cyclohexyl)oxy)naphthalen-2-yl)methy 1)piperidine-4-carboxylic acid], the pIC50 was at least 6.30. For `O=C(O)[C@H]1CC[C@H](NCc2ccc3ccc(O[C@H]4CC[C@@H](C(F)(F)F)CC4)c(C(F)(F)F)c3c2)CC1` [Example 125, trans-4-(((8-(trifluoromethyl)-7-((cis-4-(trifluoromethyl)cyclohexyl)oxy)naphthalen-2-yl)methyl)amino)cyclohexanecarboxylic acid], the pIC50 was at least 6.30.

Staying with this assay, now noted: IC50, FRET substrate FS-3 2 μM, ATX 1.0 μg/mL, 30 minutes pre-incubation, 2 hours at room temperature.
On to `C[C@H](c1ccc2ccc(O[C@H]3CC[C@@H](C)CC3)c(C(F)(F)F)c2c1)N1C2CCCC1CC(C(=O)O)C2` (single isomer, unassigned) [Example 5b], for which the pIC50 is at least 7.00. With `CC[C@H]1CC[C@@H](Oc2ccc3ccc(CN4C5CCCC4CC(C(=O)O)C5)cc3c2C#N)CC1` (stereo partly drawn) [Example 71, 9-((8-cyano-7-((cis-4-ethylcyclohexyl)oxy)naphthalen-2-yl)methyl)-9-azabicyclo[3.3.1]nonane-3-carboxylic acid], the pIC50 is at least 7.00. Same read-out and setting: in the case of `C[C@H]1CC[C@@H](Oc2ccc3ccc(CN4C5CCCC4CC(C(=O)O)C5)cc3c2C#N)CC1` (stereo partly drawn) [Example 98, 9-((8-cyano-7-((cis-4-methylcyclohexyl)oxy)naphthalen-2-yl)methyl)-9-azabicyclo[3.3.1]nonane-3-carboxylic acid] it was at least 7.00; in that of `CC[C@H]1CC[C@@H](Oc2ccc3ccc(C(C)N4C5CCC4CC(C(=O)O)C5)cc3c2C(F)F)CC1` (stereo partly drawn) [Example 63, 8-(1-(8-(difluoromethyl)-7-((cis-4-ethylcyclohexyl)oxy)naphthalen-2-yl)ethyl)-8-azabicyclo[3.2.1]octane-3-carboxylic acid], at least 7.00.

For `CC(c1ccc2ccc(O[C@H]3CC[C@@H](C)CC3)c(C#N)c2c1)N1C2CCCC1CC(C(=O)O)C2` (stereo partly drawn) [Example 102, 9-(1-(8-cyano-7-((cis-4-methylcyclohexyl)oxy)naphthalen-2-yl)ethyl)-9-azabicyclo[3.3.1]nonane-3-carboxylic acid], the pIC50 was at least 7.00. On the same count and under the same terms, in the case of `N#Cc1c(O[C@H]2CC[C@@H](C(F)(F)F)CC2)ccc2ccc(CN3C4CCC3CC(C(=O)O)C4)cc12` (stereo partly drawn) [Example 34, 8-((8-cyano-7-((cis-4-(trifluoromethyl)cyclohexyl)oxy)naphthalen-2-yl)methyl)-8-azabicyclo[3.2.1]octane-3-carboxylic acid] it was at least 6.60; in that of `O=C(O)C1CC2CCCC(C1)N2C(=O)c1ccc2ccc(O[C@H]3CC[C@@H](C(F)(F)F)CC3)c(C(F)(F)F)c2c1` (stereo partly drawn) [Example 14, 9-[8-trifluoromethyl-7-(4-trifluoromethyl-cyclohexyloxy)-naphthalene-2-carbonyl]-9-aza-bicyclo[3.3.1]nonane-3-carboxylic acid], at least 7.00; in that of `C[C@H]1CC[C@@H](Oc2ccc3ccc(CN4C5CCCC4CC(C(=O)O)C5)cc3c2C(F)(F)F)CC1` (stereo partly drawn) [Example 2, 9-[7-(cis-4-methyl-cyclohexyloxy)-8-trifluoromethyl-naphthalen-2-ylmethyl]-9-aza-bicyclo[3.3.1]nonane-3-carboxylic acid], at least 7.00. Same read-out and setting: in the case of `CC(c1ccc2ccc(O[C@H]3CC[C@@H](C(F)(F)F)CC3)c(C#N)c2c1)N1C2CCC1CC(C(=O)O)C2` (stereo partly drawn) [Example 37, 8-(1-(8-cyano-7-((cis-4-(trifluoromethyl)cyclohexyl)oxy)naphthalen-2-yl)ethyl)-8-azabicyclo[3.2.1]octane-3-carboxylic acid] it was at least 7.00; in that of `C[C@H]1CC[C@@H](Oc2ccc3ccc(CN4C5CCC4CC(C(=O)O)C5)cc3c2C#N)CC1` (stereo partly drawn) [Example 96, 8-((8-cyano-7-((cis-4-methylcyclohexyl)oxy)naphthalen-2-yl)methyl)-8-azabicyclo[3.2.1]octane-3-carboxylic acid], at least 6.60. Regarding `CCC(c1ccc2ccc(O[C@H]3CC[C@@H](C(F)(F)F)CC3)c(C#N)c2c1)N1C2CCCC1CC(C(=O)O)C2` (stereo partly drawn) [Example 41, 9-(1-(8-cyano-7-((cis-4-(trifluoromethyl)cyclohexyl)oxy)naphthalen-2-yl)propyl)-9-azabicyclo[3.3.1]nonane-3-carboxylic acid], the pIC50 is at least 6.60. For `CC(c1ccc2ccc(O[C@H]3CC[C@@H](C(F)(F)F)CC3)c(C(F)(F)F)c2c1)N1C2CCCC1CC(C(=O)O)C2` (stereo partly drawn) [Example 10, 9-{1-[7-(cis-4-trifluoromethyl-cyclohexyloxy)-8-trifluoromethyl-naphthalen-2-yl]-ethyl}-9-aza-bicyclo[3.3.1]nonane-3-carboxylic acid], the pIC50 is at least 7.00. Regarding `CC(c1ccc2ccc(O[C@H]3CC[C@@H](C(F)(F)F)CC3)c(C(F)F)c2c1)N1C2CCC1CC(C(=O)O)C2` (stereo partly drawn) [Example 42, 8-(1-(8-(difluoromethyl)-7-((cis-4-(trifluoromethyl)cyclohexyl)oxy)naphthalen-2-yl)ethyl)-8-azabicyclo[3.2.1]octane-3-carboxylic acid], the negative logarithm of the IC50 (pIC50) is at least 7.00.
